The test system of assay [1] is abdominal constriction response. As to the kind of experiment: abdominal constriction response (analgesic activity, acetylcholine chloride-induced, s.c. dosing). The class given is in vivo, mice. Particulars: for analgesic activity (no activity): at 20 mg/kg, hydrochloride; for ED50: Mus musculus, sc; for ED50 / potency, in words: compared with control compound, other examples; for analgesic activity, in words: Table II conclusions and summary. The procedure: The analgesic activity of the compounds of the present invention was tested in mice by means of the "abdominal constriction" response. The test is based on the observation that following interperitoneal injection of a noxious agent, such as acetylcholine chloride, mice show a response which consists of a wave of constriction and elongation passing caudally along the abdominal wall, sometimes accompanied by twisting of the trunk and followed by extension of the hind limbs. […] Non-fasted female mice, weighing between 20 and 25 g, were used in the studies. […] The animals were then placed in a circular glass enclosure and the number of responses counted during a given time period. Compounds completely inhibiting the response to acetycholine in at least five out of ten animals were subsequently tested at reduced dosage levels, using groups of ten animals per dose. The dose required to produce a specified response, that is, analgesic effect, is termed the individual effective dose; the response is a quantal rather than a graded response, since it is either present or absent. The cumulative frequency distribution of individual effective doses obtained, plotted as a function of logarithm of dose, is known as a dose-percent or dose-response curve. The ED50 and ED90 is then calculated from the dose-response curve obtained in the above experiments. […] The expression ED90 indicates the amount of compound required to produce an analgesic effect in 90 percent of animals tested.

Assay [2] has the same test system. The experiment in a line: duration of analgesic activity (abdominal constriction response, time for 50 percent decay of the analgesic effect of the ED90 dosage). The class given is in vivo, mice. Particulars: for increase in duration of activity versus unsubstituted control compound (factor): in comparison to the unsubstituted control compound; for Duration of Activity 1/2 T: time to 50 percent decay of analgesic effect, pharmacologically equipotent doses, based on ED90 dosages. The procedure: The analgesic activity of the compounds of the present invention was tested in mice by means of the "abdominal constriction" response. The test is based on the observation that following interperitoneal injection of a noxious agent, such as acetylcholine chloride, mice show a response which consists of a wave of constriction and elongation passing caudally along the abdominal wall, sometimes accompanied by twisting of the trunk and followed by extension of the hind limbs. […] Non-fasted female mice, weighing between 20 and 25 g, were used in the studies. […] The animals were then placed in a circular glass enclosure and the number of responses counted during a given time period.

Setting [3] is: subcutaneous, 10 min before i.p. acetylcholine chloride (3.2 mg/kg), mice, read-out: ED50.

Where a name gives a salt, the structure may show the parent alone. Read-outs that look alike come from different tables or passages of the source.

A word on the ED50: it is the midpoint of the dose-response relation.

For the compound `CCN(CC)CCNC(=O)c1cccc(Cl)c1O` [Example 10, N-(2-diethylaminoethyl)-3-chlorosalicylamide hydrochloride], the entries for the “analgesic activity (no activity)” value in assay [1] and in assay [1] (listed as 3-chloro) were “no activity” and “no analgesic activity”, respectively.

Take `CCCCc1cccc(C(=O)NCCN(CC)CC)c1O` [Example 4, N-(2-diethylaminoethyl)-3-n-butylsalicylamide oxalate]: the ED50 in assay [1] (setting [3]) came out at 31 mg/kg. Moreover, the “ED50 / potency, in words” value in assay [1] is “less active analgesics than the other examples and the control sample”. Also, in assay [2], the “increase in duration of activity versus unsubstituted control compound (factor)” value is “greater than 5 fold” and the “Duration of Activity 1/2 T” value was 125 min.

In the case of `CCN(CC)CCNC(=O)c1cccc(C(C)C)c1O` [Example 1, N-(2-diethylaminoethyl)-3-isopropylsalicylamide hydrochloride], the ED50 in assay [1] (setting [3]) worked out at 12.7 mg/kg. In addition, the “ED50 / potency, in words” value in assay [1] is given as “substantially at the same potency as that of the control compound”. In addition, the “Duration of Activity 1/2 T” value in assay [2] amounted to 80 min.

For `CCN(CC)CCNC(=O)c1cccc(CC(C)C)c1O` [Example 5, N-(2-diethylaminoethyl)-3-isobutylsalicylamide hydrochloride], the ED50 in assay [1] (setting [3]) amounted to 44.5 mg/kg. Further, in assay [2], the “increase in duration of activity versus unsubstituted control compound (factor)” value is on record as “greater than 5 fold” and the “Duration of Activity 1/2 T” value was found to be 205 min.

In the case of `CCN(CC)CCNC(=O)c1cccc(C)c1O` [Example 2, N-(2-diethylaminoethyl)-3-methylsalicylamide hydrochloride], in assay [1], the 50% effect level (ED50) was put at a dose of 14.2 mg/kg and the “ED50 / potency, in words” value is “fairly low ED50”. Also, the “analgesic activity, in words” value in assay [1] (mice) was “exhibited analgesic activity”. Moreover, the “duration of analgesic activity, in words” value in assay [2] (compared with control or prior art compounds) is “no meaningful increase in the duration of analgesic activity”. Also, the “Duration of Activity 1/2 T” value in assay [2] was under 40 min.

Turning to `CCN(CC)CCNC(=O)c1cccc(C(C)(C)CC)c1O` [Example 7, N-(2-diethylaminoethyl)-3-t-amylsalicylamide hydrochloride], the “analgesic activity (no activity)” value was “no activity” in assay [1] and “no analgesic activity” in assay [1] (listed as amyl).

Take `CCCCCCCCc1cccc(C(=O)NCCN(CC)CC)c1O` [Example 3, N-(2-diethylaminoethyl)-3-n-octylsalicylamide hydrochloride]: the “analgesic activity (no activity)” value in assay [1] is “no activity”; in assay [1] (listed as n-octyl), “no analgesic activity”.

With `C=C(C)Cc1cccc(C(=O)NCCN(CC)CC)c1O` [Example 9, N-(2-diethylaminoethyl)-3-methallylsalicylamide oxalate], the ED50 in assay [1] (setting [3]) was found to be 23.8 mg/kg. Also, in assay [1], the “ED50 / potency, in words” value is “substantially at the same potency as that of the control compound”. Further, in assay [2], the “Duration of Activity 1/2 T” value was determined as 60 min.

As for `CCN(CC)CCNC(=O)c1ccccc1O.Cl` [Control, N-(2-diethylaminoethyl)salicylamide hydrochloride, reference compound], the 50% effective dose (ED50) in assay [1] (setting [3]) turned out to be 16.6 mg/kg. Further, the “analgesic activity, in words” value in assay [1] (mice) is recorded as “exhibited analgesic activity”.

Take `C=CCc1cccc(C(=O)NCCN(CC)CC)c1O` [Example 8, N-(2-diethylaminoethyl)-3-allylsalicylamide oxalate]: in assay [1] (setting [3]), the ED50 worked out at 17.2 mg/kg. Moreover, the “Duration of Activity 1/2 T” value in assay [2] was 80 min.

Turning to `CCN(CC)CCNC(=O)c1cccc(C(C)(C)C)c1O` [Example 6, N-(2-diethylaminoethyl)-3-t-butylsalicylamide hydrochloride], the median effective dose (ED50) in assay [1] (setting [3]) stood at 14.3 mg/kg. The “ED50 / potency, in words” value in assay [1] is on record as “substantially at the same potency as that of the control compound”. In addition, the “Duration of Activity 1/2 T” value in assay [2] was found to be 120 min.

The values are drawn from US4140769A, “3-Substituted salicylamides” (Miles Laboratories, Inc., priority 1978, dated 1979).
